Test results from patent US11154569B2, “Ruthenium μ-nitrido complexes and their use as calcium uptake inhibitors” (CORNELL UNIVERSITY, priority 2018, dated 2021).

Experiments:
[1] = biological target: T1, mitochondrial calcium uniporter (MCU) (Homo sapiens, UniProt Q8NE86); assay: MCU-mediated Ca2+ uptake and ΔΨm in permeabilized HEK293T cells; type: cell-based; parameters: endogenous in cells; host or cells: HEK293T (digitonin-permeabilized); details: for MCU mediated mCa2+ uptake / transient ΔΨm loss (JC-1): 5 μM compound, 20 μM Ca2+ bolus; for MCU mediated mCa2+ uptake: digitonin permeabilized HEK293T cells; for transient ΔΨm loss (JC-1): permeabilized HEK293T cells
T1 sequence (Q8NE86 51-351): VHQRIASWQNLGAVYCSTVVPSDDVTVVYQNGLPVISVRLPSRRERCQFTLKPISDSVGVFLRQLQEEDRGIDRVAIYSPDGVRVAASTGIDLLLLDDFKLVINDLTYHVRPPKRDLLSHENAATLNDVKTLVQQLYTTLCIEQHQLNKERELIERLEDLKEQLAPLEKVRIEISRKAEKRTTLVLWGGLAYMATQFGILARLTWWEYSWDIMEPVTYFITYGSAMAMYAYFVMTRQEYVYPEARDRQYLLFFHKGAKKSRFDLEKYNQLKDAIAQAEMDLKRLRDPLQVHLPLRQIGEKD
T1 sequence (Q9H4I9 48-107 partner limits assumed): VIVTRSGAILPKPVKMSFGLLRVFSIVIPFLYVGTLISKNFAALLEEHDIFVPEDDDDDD
Method: (§1) An equal number of IHEK293T (6×10^6 cells) were washed in Ca^2+ free PBS, pH 7.4, resuspended and permeabilized with 40 μg/ml digitonin in 1.5 ml of intracellular medium (ICM) composed of 120 mM KCl, 10 mM NaCl, 1 mM K—H2PO4, 20 mM HE PES-Tris, pH 7.2 and 2 μM thapsigargin to block the SERCA pump. All measurements were performed in the presence of 2 mM succinate. The permeabilized cells were loaded with JC-1 (800 nM) and Fura2-FF (0.5 μM), respectively. Fluorescence was monitored in a multi-wavelength excitation dual-wavelength emission fluorimeter. [Ca^2+]out is represented as the excitation ratio (340 nm/380 nm) of Fura2-FF/FA fluorescence and ΔΨm as the ratio of the fluorescence of J-aggregate (570 nm excitation/595 nm emission) and monomer (490 nm excitation/535 nm emission) forms of JC-1. A series of extra-mitochondrial Ca^2+ bolus (20 μM) was added and mitochondrial uncoupler, CCCP (2 jμM), were added at the indicated time points. All of the experiments were performed at 37° C. with constant stirring.
With the new nitrido-bridged ruthenium compounds C-2 and C-3 prepared, MCU-inhibitory properties of these compounds were evaluated and their activities compared to C-1, the oxo-bridged Ru360 analogue of the conventional art (S. R. Nathan et al., Inorg. Chem. 2017, 56, 3123-3126 and S. R. Nathan et al., J. Vis. Exp. 2017, 56527). The cytotoxicity of the complexes in HEK293 cells was first measured using the colorimetric thiazolyl blue tetrazolium bromide (MTT) assay, as well known in the art. […] To measure the effect of these compounds on MCU activity, permeabilized HEK293T cells were treated with commercially available Ru360, C-1, C-2, or C-3 (5 jμM) 200 seconds prior to the delivery of a 20 μM bolus of Ca^2+ in the presence of 2 mM succinate as an energy source and the sarco/endoplasmic reticulum Ca^2+-ATPase (SERCA) pump blocker thapsigargin to prevent ER Ca^2+ uptake (S. Shanmughapriya et al., Sci. Signal. 2015, 8, ra23).
FIGS. 2A-2C are graphs showing changes in mitochondrial membrane potential (ΔΨm, JC-1, top panel) and extramitochondrial Ca^2+([Ca^2+]out) clearance (Fura-2 FF, bottom panel) in digitonin permeabilized HEK293T cells in response to 20 μM of Ca^2+ after treatment with 5 μM of C-1 (FIG. 2A), C-2 (FIG. 2B), and C-3 (FIG. 2C). The transient drop in ΔΨm in control cells upon Ca^2+ addition indicates accumulation of Ca^2+ in the mitochondrial matrix. FIG. 2D is a graph quantifying the rate of [Ca^2+] uptake as a function of decrease in [Ca^2+]out after a […] Ca^2+ pulse. […] Additionally, ΔΨm was monitored using 5,5′,6,6′-tetrachloro-1,1′,3,3′-tetraethylbenzimidazolylcarbocyanine iodide (JC-1) dye (M. Reen et al., Biochemistry 1991, 30, 4480-4486).
Having identified (C-2 as a cell-permeable MCU inhibitor, a dose-response analysis was performed to determine the potency of C-2 towards mCa^2+ uptake inhibition of C-2 in a permeabilized cell system. Permeabilized IHEK293T cells were treated with C-2 (1 nM to 1 μM). A 20 μM Ca^2+ bolus was added after baseline recording, and the extra-mitochondrial calcium cleared was used as an indicator for MCU-mediated mCa^2+ uptake using Fura-2FF. The results are shown in FIGS. 4A-4C. FIG. 4A includes representative traces of [Ca^2+]out clearance in permeabilized HEK293T cells challenged with a range of C-2 concentrations (1, 2, 3, 5, and 10 nM). FIG. 4B is a graph comparing MCU-inhibitory effect by Ru360 (30 nM) and C-2 (2 and 10 nM) at lower concentrations. FIG. 4C is a graph showing calculation of dose-dependent IC50 inhibition by C-2 and Ru360. Data represent mean±SEM (n=3-6), n.s.=not significant. […] Furthermore, complete inhibition of mCa^2+ uptake was observed when cells were dosed with 10 nM C-2 while 500 nM of Ru360 was required for the same response (FIGS. 4A and 4B).

mCa2+ efflux channels = assay: Mitochondrial Ca2+ efflux in permeabilized HEK293T cells; type: cell-based, human; details: for effect on mCa2+ efflux: 1 μM added after 20 μM Ca2+ pulse
Method: as §1
FIG. 4D is a graph showing assessment of mitochondrial Ca^2+ influx and efflux rates. Permeabilized HEK293T cells were pulsed with 20 μM Ca^2+ at 350 s to measure mitochondrial Ca^2+ uptake, followed by the addition of the 1 μM C-2 or Ru360 at 550 s, 10 μM CGP37157 at 600 s, and 6 μM CCCP at 750 s. In FIG. 4D, a representative trace depicts the comparison of C-2 and Ru360. FIG. 4E is a bar chart showing quantitation of Ca^2+ influx rate. FIG. 4F is a bar chart showing quantification of Ca^2+ efflux rate after addition of C-2 or Ru360. FIG. 4G is a bar chart showing quantification of CCCP-induced release of accumulated mitochondrial Ca^2+. […] To further confirm the selectivity of C-2 for the MCU, mCa^2+ uptake, mCa^2+ efflux rates and matrix Ca^2+ levels were measured in permeabilized HEK293T cells before and after treatment with C-2 using the fluorescent Ca^2+ indicator Fura-2-FF. […] Ru360 or C-2 were next added to inhibit MCU-mediated Ca^2+ uptake and subsequently visualize [Ca^2+]m efflux (FIG. 4D).

| Compound | IC50 [1] | MCU mediated mCa2+ uptake [1] | transient ΔΨm loss (JC-1) [1] | effect on mCa2+ efflux (mCa2+ efflux channels) | change in activity upon treatment with CGP-37157 and CCCP (mCa2+ efflux channels; 10 μM CGP37157, 6 μM CCCP) |
| --- | --- | --- | --- | --- | --- |
| N.N.N.N.N.N.N.N.[Cl-].[Cl-].[N-3].[Ru+4].[Ru+4] [C-2, [Ru2(μ-N)(NH3)8Cl2]Cl3] | 0.0026 µM | significant reduction in MCU mediated mCa^2+ uptake | no transient A m loss | do not affect mCa^2+ efflux channels | No change |
| N.N.N.N.N.N.N.N.O=C[O-].O=C[O-].[O-2].[Ru+3].[Ru+4] [Ru360, reference compound] | 0.03 µM | significant reduction in MCU mediated mCa^2+ uptake | no transient A m loss | do not affect mCa^2+ efflux channels | – |
| [Ru2(μ-N)(en)4Cl2]Cl3 [C-3] | – | significant reduction in MCU mediated mCa^2+ uptake | no transient A m loss | – | – |
